Data: patent US20070092577A1, “Dietary calcium for reducing the production of reactive oxygen species” (University of Tennessee Research Foundation, priority 2005, published 2007)

How the values were obtained:
[1] = system: TNFα; test: TNFα expression in differentiated 3T3-L1 adipocytes; type: cell-based, mouse; details: nifedipine 10 μmol/L alone, 48 h
Experimental: 3T3-L1 pre-adipocytes were incubated at a density of 8000 cells/cm^2 (10 cm^2 dish) and grown in Dulbecco's modified Eagle's medium (DMEM) containing 10% FBS and antibiotics (adipocyte medium) at 37° C. in 5% CO2 in air. Confluent pre-adipocytes were induced to differentiate with a standard differentiation medium consisting of DMEM-F10 (1:1, vol/vol) medium supplemented with 1% fetal bovine serum (FBS), 1 μM dexamethasone, isobutylmethylxanthine (IBMX) (0.5 mM) and antibiotics (1% Penicillin-Streptomycin). Pre-adipocytes were maintained in this differentiation medium for 3 days and subsequently cultured in adipocyte medium. Cultures were re-fed every 2-3 days to allow 90% cells to reach fully differentiation before conducting chemical treatment. […] Cell viability was measured via trypan blue exclusion. Adipocyte and muscle 18s, TNFα, IL-6, IL-8, IL-15 and adiponectin were quantitatively measured using a smart cycler real-time PCR system (Cepheid, Sunnyvale, Calif.) with a TaqMan 1000 Core Reagent Kit (Applied Biosystems, Branchburg, N.J.). […] Reactions of quantitative RT-PCR for standards and unknown samples were also performed according to the instructions of Smart Cycler System (Cepheid, Sunnyvale, Calif.) and TaqMan Real Time PCR Core Kit (Applied Biosystems, Branchburg, N.J.). The mRNA quantitation for each sample was further normalized using the corresponding 18s quantitation.

[2] = system: IL-15; test: IL-15 expression in differentiated Zen-bio human adipocytes; type: cell-based; details: 10 nmol/L 1α, 25-(OH)2-D3 or 10 μmol/L nifedipine, 48 h; p=0.473
Experimental: (§1) Human pre-adipocytes used in this study were supplied by Zen-Bio (Research Triangle, N.C.). […] The cells are isolated from the stromal vascular fraction of human subcutaneous adipose tissue and differentiated in vitro as follows: […] Preadipocytes were maintained in this differentiation medium for 3 days and subsequently cultured in adipocyte medium in which BRL49653 and MIX were omitted. Cultures were re-fed every 2-3 days till fully differentiated. Cells were incubated in serum free medium overnight before chemical treatment. Chemicals were freshly diluted in adipocyte medium before treatment. […] Cell viability was measured via trypan blue exclusion. Adipocyte and muscle 18s, TNFα, IL-6, IL-8, IL-15 and adiponectin were quantitatively measured using a smart cycler real-time PCR system (Cepheid, Sunnyvale, Calif.) with a TaqMan 1000 Core Reagent Kit (Applied Biosystems, Branchburg, N.J.). […] Reactions of quantitative RT-PCR for standards and unknown samples were also performed according to the instructions of Smart Cycler System (Cepheid, Sunnyvale, Calif.) and TaqMan Real Time PCR Core Kit (Applied Biosystems, Branchburg, N.J.). The mRNA quantitation for each sample was further normalized using the corresponding 18s quantitation.

[3] = system: adiponectin; test: Adiponectin expression in differentiated Zen-bio human adipocytes; type: cell-based; details: 10 nmol/L 1α, 25-(OH)2-D3 or 10 μmol/L nifedipine, 48 h; p=0.377
Experimental: as §1

[4] = system: ROS production in cultured 3T3-L1 adipocytes; test: ROS production in cultured adipocytes (H2-DCFDA); type: cell-based, murine; details: 48 hours
Experimental: 3T3-L1 preadipocytes were incubated at a density of 8000 cells/cm^2 (10 cm^2 dish) and grown in Dulbecco's modified Eagle's medium (DMEM) containing 10% FBS and antibiotics (adipocyte medium) at 37° C. in 5% CO2 in air. Confluent preadipocytes were induced to differentiate with a standard differentiation medium consisting of DMEM-F 10 (1:1, vol/vol) medium supplemented with 1% FBS, 1 μM dexamethasone, IBMX (0.5 mM) and antibiotics (1% Penicillin-Streptomycin). Preadipocytes were maintained in this differentiation medium for 3 days and subsequently cultured in adipocyte medium. Cultures were re-fed every 2-3 days to allow 90% of cells to reach full differentiation before conducting chemical treatment. Chemicals were freshly diluted in adipocyte medium before treatment. Cells were washed with fresh adipocyte medium, re-fed with medium containing the different treatments, and incubated at 37° C. in 5% CO2 in air before analysis. Cell viability was measured via trypan blue exclusion. […] Cells were loaded with H2-DCFDA (2 μmol/L) 30 minute before the end of the incubation period (48 h). After washing twice with PBS, cells were scraped and disrupted by sonication on ice (20s). Fluorescence (emission 543 nm or 527 nm) and DNA content were then measured as described previously. The intensity of fluorescence was expressed as arbitary units per ng DNA.

[5] = system: NADPH oxidase; test: NADPH oxidase expression in 3T3-L1 adipocytes; type: cell-based, murine; details: added to glucose 30 mmol/L, 48 hours; nifedipine 10 μmol/L
Experimental: (§2) 3T3-L1 preadipocytes were incubated at a density of 8000 cells/cm^2 (10 cm^2 dish) and grown in Dulbecco's modified Eagle's medium (DMEM) containing 10% FBS and antibiotics (adipocyte medium) at 37° C. in 5% CO2 in air. Confluent preadipocytes were induced to differentiate with a standard differentiation medium consisting of DMEM-F 10 (1:1, vol/vol) medium supplemented with 1% FBS, 1 μM dexamethasone, IBMX (0.5 mM) and antibiotics (1% Penicillin-Streptomycin). Preadipocytes were maintained in this differentiation medium for 3 days and subsequently cultured in adipocyte medium. Cultures were re-fed every 2-3 days to allow 90% of cells to reach full differentiation before conducting chemical treatment. Chemicals were freshly diluted in adipocyte medium before treatment. […] Cell viability was measured via trypan blue exclusion. Adipocyte 18s, cyclin A, NADPH oxidase, and UCP2 were quantitatively measured using a Smart Cycler Real Time PCR System (Cepheid, Sunnyvale, Calif.) with a TaqMan 1000 Core Reagent Kit (Applied Biosystems, Branchburg, N.J.). […] Reactions of quantitative RT-PCR for standards and unknown samples were also performed according to the instructions of Smart Cycler System (Cepheid, Sunnyvale, Calif.) and TaqMan Real Time PCR Core Kit (Applied Biosystems, Branchburg, N.J.). The mRNA quantitation for each sample was further normalized using the corresponding 18s quantitation.

[6] = system: cyclin A; test: Cyclin A expression in 3T3-L1 adipocytes; type: cell-based, murine; details: added to glucose 30 mmol/L, 48 hours; nifedipine 10 μmol/L
Experimental: as §2

[7] = system: Mitochondrial potential in cultured wild-type 3T3-L1 adipocytes; test: Mitochondrial membrane potential (JC-1); type: cell-based, murine; details: GDP 100 μmol/L with H2O2 100 nmol/L, 48 hours
Experimental: 3T3-L1 preadipocytes were incubated at a density of 8000 cells/cm^2 (10 cm^2 dish) and grown in Dulbecco's modified Eagle's medium (DMEM) containing 10% FBS and antibiotics (adipocyte medium) at 37° C. in 5% CO2 in air. Confluent preadipocytes were induced to differentiate with a standard differentiation medium consisting of DMEM-F 10 (1:1, vol/vol) medium supplemented with 1% FBS, 1 μM dexamethasone, IBMX (0.5 mM) and antibiotics (1% Penicillin-Streptomycin). Preadipocytes were maintained in this differentiation medium for 3 days and subsequently cultured in adipocyte medium. Cultures were re-fed every 2-3 days to allow 90% of cells to reach full differentiation before conducting chemical treatment. Chemicals were freshly diluted in adipocyte medium before treatment. […] Cell viability was measured via trypan blue exclusion.
Mitochondrial membrane potential was analyzed fluorometrically with a lipophilic cationic dye JC-1 (5,5′,6,6′-tetrachloro-1,1′,3,3′-tetraethylbenzimidazol carbocyanine iodide) using a mitochondrial potential detection kit (Biocarta, San Diego, Calif.). Mitochondrial potential was determined as the ratio of red fluorescence (excitation 550 nm, emission 600 mn) and green fluorescence (excitation 485 nm, emission 535 nm) using a fluorescence microplate reader.

[8] = system: 3T3-L1 adipocytes; test: DNA synthesis / cell proliferation (CyQUANT); type: cell-based, murine; details: 48 hours
Experimental: 3T3-L1 preadipocytes were incubated at a density of 8000 cells/cm^2 (10 cm^2 dish) and grown in Dulbecco's modified Eagle's medium (DMEM) containing 10% FBS and antibiotics (adipocyte medium) at 37° C. in 5% CO2 in air. Confluent preadipocytes were induced to differentiate with a standard differentiation medium consisting of DMEM-F 10 (1:1, vol/vol) medium supplemented with 1% FBS, 1 μM dexamethasone, IBMX (0.5 mM) and antibiotics (1% Penicillin-Streptomycin). Preadipocytes were maintained in this differentiation medium for 3 days and subsequently cultured in adipocyte medium. Cultures were re-fed every 2-3 days to allow 90% of cells to reach full differentiation before conducting chemical treatment. Chemicals were freshly diluted in adipocyte medium before treatment. Cells were washed with fresh adipocyte medium, re-fed with medium containing the different treatments, and incubated at 37° C. in 5% CO2 in air before analysis. Cell viability was measured via trypan blue exclusion. Cells were plated in DMEM with different treatment in duplicate in 96-well plates. After 48 h, a CyQUANT Cell Proliferation Kit (Molecular Probes, Eugene, Oreg.) was used following the manufacturer's protocol a microplate fluorometer (Packard Instrument Company, Inc., Downers Grove, Ill.) was used to measure CyQUANT fluorescence. Cell viability was determined by Trypan blue exclusion examination.

[9] = system: IL-6; test: IL-6 expression in RAW 264 macrophages; type: cell-based; details: added to calcitriol; macrophages cultured alone
Experimental: (§3) RAW 264 macrophages and 3T3-L1 preadipocytes (American Type Culture Collection) were incubated at a density of 8000 cells/cm2 (10 cm2 dish) and grown in Dulbecco's modified Eagle's medium (DMEM) containing 10% FBS and antibiotics (adipocyte medium) at 37° C. in 5% CO2 in air. Confluent 3T3-L1 preadipocytes were induced to differentiate with a standard differentiation medium consisting of DMEM-F10 (1:1, vol/vol) medium supplemented with 1% FBS, 1 μM dexamethasone, IBMX (0.5 mM) and antibiotics (1% Penicillin-Streptomycin). Preadipocytes were maintained in this differentiation medium for 3 days and subsequently cultured in adipocyte medium. Cultures were re-fed every 2-3 days to allow 90% cells to reach fully differentiation for 3T3-L1 adipocytes or grow to a confluence for RAW 264 before conducting chemical treatment.
(§4) Human adipocytes (Zen-Bio, Inc.), 3T3-L1 adipocytes, RAW264 macrophages were obtained and co-cultured by using transwell inserts with 0.4 μm porous membranes (Corning) to separate adipocytes and macrophages. All data are expressed as mean±SEM. Data were evaluated for statistical significance by analysis of one-way or two-way variance (ANOVA; means with different letter differ, p<0.05).
(§5) Adipocyte and muscle 18s, CD14, TNFα, MIP, M-CSF, IL-6 and MCP-1 were quantitatively measured using a Smart Cycler Real Time PCR System (Cepheid, Sunnyvale, Calif.) with a TaqMan 1000 Core Reagent Kit (Applied Biosystems, Branchburg, N.J.). The primers and probe sets were obtained from Applied Biosystems TaqMan® Assays-on-Demand™ Gene Expression primers and probe set collection according to manufacture's instruction. […] Reactions of quantitative RT-PCR for standards and unknown samples were also performed according to the instructions of Smart Cycler System (Cepheid, Sunnyvale, Calif.) and TaqMan Real Time PCR Core Kit (Applied Biosystems, Branchburg, N.J.). The mRNA quantitation for each sample was further normalized using the corresponding 18s quantitation.

[10] = system: TNFα; test: TNFα expression in RAW 264 macrophages; type: cell-based; details: added to calcitriol; macrophages cultured alone
Experimental: as §3, §4, §5

[11] = added to glucose 30 mmol/L, nifedipine 10 μmol/L

COC(=O)C1=C(C)NC(C)=C(C(=O)OC)C1c1ccccc1[N+](=O)[O-] [nifedipine]
effect on TNFα expression, alone [1]: no effect | effect on IL-15 expression [2]: no effect | effect on adiponectin expression [3]: no effect | inhibition of H2O2 induced ROS production ([4]; nifedipine 10 μmol/L with H2O2 100 nmol/L, p<0.003): 25%

Nc1nc2c(ncn2[C@@H]2O[C@H](COP(=O)(O)OP(=O)(O)O)[C@@H](O)[C@H]2O)c(=O)[nH]1 [GDP]
effect on NADPH oxidase expression [5]: suppressed | effect on glucose stimulated cyclin A expression [6]: augmented | augmentation of the H2O2 effect on mitochondrial potential [7]: 10% | increase of ROS production compared to H2O2 treatment alone ([4]; GDP 100 μmol/L with H2O2 100 nmol/L, p<0.01): 24% | effect on high glucose induced ROS production [4, 11]: further stimulated ROS production compared to glucose alone | augmentation of the stimulation of cell proliferation by H2O2 ([8]; GDP 100 μmol/L with H2O2 100 nmol/L, p<0.005): 183% | effect on glucose induced DNA synthesis [8, 11]: augmented

O=[N+]([O-])c1ccc(O)c([N+](=O)[O-])c1 [DNP]
effect on calcitriol stimulated IL-6 expression [9]: blocked | effect on calcitriol stimulated TNFα expression [10]: blocked
